Measured values taken from ChEMBL document CHEMBL1141799, “Cyanopeptolin 954, a chlorine-containing chymotrypsin inhibitor of Microcystis aeruginosa NIVA Cya 43” (J Nat Prod, 2005).
The source made the active and inactive calls. No cut-off for these calls is given here.

Tests used:
[1] = species: Bos taurus; assay: Inhibition of bovine trypsin at 17.3 uM
[2] = Inhibition of bovine chymotrypsin; design: species or system Bos taurus
[3] = species: Bos taurus; assay: Inhibition of bovine trypsin at 11.4 uM
[4] = Inhibition of chymotrypsin

Row | SMILES | Activity [1] | IC50 [2] [nM] | Activity [3] | IC50 [4] [nM]
1 | CC(=O)N[C@@H](CCC(N)=O)C(=O)N[C@@H]1C(=O)N[C@@H](CC(C)C)C(=O)N[C@H]2CC[C@@H](O)N(C2=O)[C@@H](Cc2ccccc2)C(=O)N(C)[C@@H](Cc2ccc(O)c(Cl)c2)C(=O)N[C@@H](C(C)C)C(=O)O[C@H]1C [CYANOPEPTOLIN 954] | inactive | 44.5 | inactive | 
2 | CC(=O)N[C@@H](CCC(N)=O)C(=O)N[C@@H]1C(=O)N[C@@H](CC(C)C)C(=O)N[C@H]2CC[C@@H](O)N(C2=O)[C@@H](Cc2ccccc2)C(=O)N(C)[C@@H](Cc2ccc(O)cc2)C(=O)N[C@@H](C(C)C)C(=O)O[C@@H]1C [NOSTOPEPTIN BN920] | inactive | 31.2 | inactive | 
3 | CC[C@H](C)[C@@H]1NC(=O)[C@H](Cc2ccc(O)cc2)N(C)C(=O)[C@H](Cc2ccccc2)N2C(=O)[C@H](CC[C@H]2O)NC(=O)[C@H](Cc2ccccc2)NC(=O)[C@@H](NC(=O)[C@@H](O)COP(=O)(O)O)[C@@H](C)OC1=O [MICROPEPTIN T 20] |  |  |  | 2.5
